Data reported in patent US6762207B1, “(E)-styryl sulfone anticancer agents” (priority 1999, dated 2004).

Legend:
Format in all cases: cell-based
Set-up in all cases: dose or concentration left out as unconfirmed
Settings in all cases: 96 hours
[1] = test system: breast tumor cell line BT-20; test: Trypan blue exclusion viability assay, BT20
Experimental: (§1) MCF-7 is estrogen-responsive, while BT-20 is an estrogen-unresponsive cell line. NIH/3T3 and HFL are normal murine and human fibroblasts, respectively. MCF-7, BT-20, DLD-1 and H157 were grown in Dulbecco's modified Eagle's medium (DMEM) containing 10% fetal bovine serum supplemented with penicillin and streptomycin. DU145 was cultured in RPMI with 10% fetal bovine serum containing penicillin and streptomycin. […] All cell cultures were maintained at 37° C. in a humidified atmosphere of 5% CO2. Cells were treated with test compound at 2.5 mM concentration and cell viability was determined after 96 hours by the Trypan blue exclusion method.

[2] = test system: prostate tumor cell line DU-145; test: Trypan blue exclusion viability assay, DU145
Experimental: as §1

[3] = test system: non-small cell lung carcinoma cell line H157; test: Trypan blue exclusion viability assay, H157
Experimental: as §1

[4] = test system: colorectal carcinoma cell line DLD-1; test: Trypan blue exclusion viability assay, DLD-1
Experimental: as §1

| Molecule | Cell death, BT20 [1] | Cell death, DU145 [2] | Cell death, H157 [3] | Cell death, DLD-1 [4] |
| --- | --- | --- | --- | --- |
| Cc1ccc(CS(=O)(=O)/C=C/c2ccc(Br)cc2)cc1 [Example 56, (E)-4-bromostyryl-4-methylbenzylsulfone] | + (5-10%: = +) | + (5-10%: = +) | + (5-10%: = +) | + (5-10%: = +) |
| COc1ccc(CS(=O)(=O)/C=C/c2ccc(Cl)cc2)cc1 [Example 61, (E)-4-chlorostyryl-4-methoxybenzylsulfone] | ++++ (50-60% = ++++) | ++++ (50-60% = ++++) | ++++ (50-60% = ++++) | ++++ (50-60% = ++++) |
| O=S(=O)(/C=C/c1ccc(F)cc1)Cc1ccc(I)cc1 [Example 19, (E)-4-Fluorostyryl-4-iodobenzylsulfone] | +++++ (Above 80% = +++++) | +++++ (Above 80% = +++++) | +++++ (Above 80% = +++++) | +++++ (Above 80% = +++++) |
| O=[N+]([O-])c1cccc(/C=C/S(=O)(=O)Cc2ccc(F)cc2)c1 [Example 30, (E)-3-nitrostyryl-4-fluorobenzylsulfone] | + (5-10%: = +) | + (5-10%: = +) | + (5-10%: = +) | + (5-10%: = +) |
| O=[N+]([O-])c1ccc(/C=C/S(=O)(=O)Cc2ccc(Cl)cc2)cc1 [Example 38, (E)-4-nitrostyryl-4-chlorobenzylsulfone] | ++++ (50-60% = ++++) | ++++ (50-60% = ++++) | ++++ (50-60% = ++++) | ++++ (50-60% = ++++) |
| O=S(=O)(/C=C/c1ccc(F)cc1C(F)(F)F)Cc1ccc(F)cc1 [Example 35, (E)-2-trifluoromethy-4-fluorostyryl-4-fluorobenzylsulfone] | + (5-10%: = +) | + (5-10%: = +) | + (5-10%: = +) | + (5-10%: = +) |
| COc1ccc(CS(=O)(=O)/C=C/c2ccccc2[N+](=O)[O-])cc1 [Example 63, (E)-2-nitrostyryl-4-methoxybenzylsulfone] | + (5-10%: = +) | + (5-10%: = +) | + (5-10%: = +) | + (5-10%: = +) |
| O=[N+]([O-])c1ccc(/C=C/S(=O)(=O)Cc2ccc(Br)cc2)cc1 [Example 48, (E)-4-nitrostyryl-4-bromobenzylsulfone] | ++++ (50-60% = ++++) | ++++ (50-60% = ++++) | ++++ (50-60% = ++++) | ++++ (50-60% = ++++) |
| O=S(=O)(/C=C/c1ccc(Cl)cc1)Cc1ccc(Cl)c(Cl)c1 [Example 7, (E)-4-Chlorostyryl-3,4-dichlorobenzylsulfone] | ++ (10-15% = ++) | − (0% = −) |  |  |
| O=[N+]([O-])c1ccccc1/C=C/S(=O)(=O)Cc1ccc(Cl)cc1 [Example 36, (E)-2-nitrostyryl-4-chlorobenzylsulfone] | + (5-10%: = +) | + (5-10%: = +) | + (5-10%: = +) | + (5-10%: = +) |
| O=[N+]([O-])c1cccc(/C=C/S(=O)(=O)Cc2ccc(Cl)cc2)c1 [Example 37, (E)-3-nitrostyryl-4-chlorobenzylsulfone] | + (5-10%: = +) | + (5-10%: = +) | + (5-10%: = +) | + (5-10%: = +) |
| COc1ccc(CS(=O)(=O)/C=C/c2ccc(F)cc2)cc1 [Example 60, (E)-4-fluorostyryl-4-methoxybenzylsulfone] | +++++ (Above 80% = +++++) | +++++ (Above 80% = +++++) | +++++ (Above 80% = +++++) | +++++ (Above 80% = +++++) |
| O=S(=O)(/C=C/c1ccccc1C(F)(F)F)Cc1ccc(Br)cc1 [Example 49, (E)-2-trifluoromethylstyryl-4-bromobenzylsulfone] | + (5-10%: = +) | + (5-10%: = +) | + (5-10%: = +) | + (5-10%: = +) |
| COc1ccc(CS(=O)(=O)/C=C/c2cccc([N+](=O)[O-])c2)cc1 [Example 64, (E)-3-nitrostyryl-4-methoxybenzylsulfone] | + (5-10%: = +) | + (5-10%: = +) | + (5-10%: = +) | + (5-10%: = +) |
| O=[N+]([O-])c1ccccc1/C=C/S(=O)(=O)Cc1ccc(Br)cc1 [Example 46, (E)-2-nitrostyryl-4-bromobenzylsulfone] | + (5-10%: = +) | + (5-10%: = +) | + (5-10%: = +) | + (5-10%: = +) |
| O=S(=O)(/C=C/c1ccc(F)cc1C(F)(F)F)Cc1ccc(Cl)cc1Cl [Example 45, (E)-2-trifluoromethyl-4-fluorostyryl-2,4-dichlorobenzylsulfone] | +++ (40-50% = +++) | +++ (40-50% = +++) | +++ (40-50% = +++) | +++ (40-50% = +++) |
| Cc1ccc(CS(=O)(=O)/C=C/c2cccc([N+](=O)[O-])c2)cc1 [Example 58, (E)-3-nitrostyryl-4-methylbenzylsulfone] | + (5-10%: = +) | + (5-10%: = +) | + (5-10%: = +) | + (5-10%: = +) |
| O=S(=O)(/C=C/c1ccc(C(F)(F)F)cc1)Cc1ccc(Cl)cc1 [Example 41, (E)-4-trifluoromethylstyryl-4-chlorobenzylsulfone] | + (5-10%: = +) | + (5-10%: = +) | + (5-10%: = +) | + (5-10%: = +) |
| O=[N+]([O-])c1ccc(/C=C/S(=O)(=O)Cc2ccc(F)cc2)cc1 [Example 31, (E)-4-nitrostyryl-4-fluorobenzylsulfone] | ++++ (50-60% = ++++) | ++++ (50-60% = ++++) | ++++ (50-60% = ++++) | ++++ (50-60% = ++++) |
| O=S(=O)(/C=C/c1cccc(C(F)(F)F)c1)Cc1ccc(Cl)cc1 [Example 40, (E)-3-trifluoromethylstyryl-4-chlorobenzylsulfone] | + (5-10%: = +) | + (5-10%: = +) | + (5-10%: = +) | + (5-10%: = +) |
| O=S(=O)(/C=C/c1ccc(I)cc1)Cc1ccc(Br)cc1 [Example 22, (E)-4-Iodostyryl-4-bromobenzylsulfone] | ++ (10-15% = ++) | ++ (10-15% = ++) | ++ (10-15% = ++) | ++ (10-15% = ++) |
| O=[N+]([O-])c1ccccc1/C=C/S(=O)(=O)Cc1ccc(I)cc1 [Example 25, (E)-2-Nitrostyryl-4-iodobenzylsulfone] | ++ (10-15% = ++) | ++ (10-15% = ++) | ++ (10-15% = ++) | ++ (10-15% = ++) |
| O=[N+]([O-])c1cccc(/C=C/S(=O)(=O)Cc2ccc(Br)cc2)c1 [Example 47, (E)-3-nitrostyryl-4-bromobenzylsulfone] | + (5-10%: = +) | + (5-10%: = +) | + (5-10%: = +) | + (5-10%: = +) |
| COc1ccc(CS(=O)(=O)/C=C/c2ccc(Br)cc2)cc1 [Example 62, (E)-4-bromostyryl-4-methoxybenzylsulfone] | ++++ (50-60% = ++++) | ++++ (50-60% = ++++) | ++++ (50-60% = ++++) | ++++ (50-60% = ++++) |
| (E)-4-trifluoromethylstyryl-4-bromoyanobenzylsulfone [Example 51] | + (5-10%: = +) | + (5-10%: = +) | + (5-10%: = +) | + (5-10%: = +) |
| O=S(=O)(/C=C/c1ccc(I)cc1)Cc1ccc(Cl)cc1 [Example 21, (E)-4-Iodostyryl-4-chlorobenzylsulfone] | ++ (10-15% = ++) | ++ (10-15% = ++) | ++ (10-15% = ++) | ++ (10-15% = ++) |
| N#Cc1ccc(CS(=O)(=O)/C=C/c2cccc([N+](=O)[O-])c2)cc1 [Example 53, (E)-3-nitrostyryl-4-cyanobenzylsulfone] | + (5-10%: = +) | + (5-10%: = +) | + (5-10%: = +) | + (5-10%: = +) |
| Cc1ccc(CS(=O)(=O)/C=C/c2ccccc2[N+](=O)[O-])cc1 [Example 57, (E)-2-nitrostyryl-4-methylbenzylsulfone] | + (5-10%: = +) | + (5-10%: = +) | + (5-10%: = +) | + (5-10%: = +) |
| O=S(=O)(/C=C/c1ccc(Br)cc1)Cc1ccc(C(F)(F)F)cc1 [Example 3, (E)-4-Bromostyryl-4-trifluoromethylbenzylsulfone] | ++ (10-15% = ++) | + (5-10%: = +) |  | + (5-10%: = +) |
| O=S(=O)(/C=C/c1ccc(Br)cc1)Cc1ccc(Cl)c(Cl)c1 [Example 8, (E)-4-Bromostyryl-3,4-dichlorobenzylsulfone] | − (0% = −) | − (0% = −) |  | − (0% = −) |
